≈ marks a conversion by molar mass, not a printed value. Counter-ions that a name gives are not always drawn. Like-named read-outs stand apart in the source and are kept apart here.
Experiments:
Assay in all cases: Antibacterial activity, minimum inhibition concentration (method of The Chemotherapy Association, Japan)
Assay type in all cases: cell-based
[1] = test system: Staphylococcus aureus 6538-P
Summary of the method: (§1)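 MIC (µg/mℓ), Japanese Chemotherapy Assoc. standard method.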

[2] = test system: Proteus inconstans NIH-118; settings: Providencia alcalifaciens
Summary of the method: as §1

[3] = test system: Pseudomonas aeruginosa NCTC-10490; settings: Pseudomonas aeruginosa
Summary of the method: as §1

[4] = test system: Enterobactor cloacae NCTC-9394; settings: strain N: Enterobactor cloacae NCTC-9394; read-out: minimum inhibition concentration
Summary of the method: as §1

Escherichia coli NIHJ = settings: Escherichia coli, strain K: Escherichia coli NIHJ; read-out: minimum inhibition concentration
Summary of the method: as §1

Proteus vulgaris OX-19 = settings: Proteus vulgaris
Source text: (§2) The abbreviations A to P will be used in the following Tables 2 to 8.
(§3) Test results are shown in terms of the minimum inhibition concentration (µg/mℓ.) in the following Tables 2 to 8.

Proteus rettgeri NIH-96 = settings: Providencia rettgeri
Source text: as §2, §3

[5] = test system: Bacillus subtilis ATCC 6633; settings: Bacillus subtilis, ATCC6633, strain B: Bacillus subtilis ATCC 6633; read-out: minimum inhibition concentration
Summary of the method: as §1

Proteus morgani Kono = settings: strain J: Proteus morgani Kono; read-out: minimum inhibition concentration
Summary of the method: as §1

Escherichia coli NIHJC-2 = settings: Escherichia coli, NIHJC2, strain L: Escherichia coli NIHJC-2; read-out: minimum inhibition concentration
Summary of the method: as §1

Serratia marcescens 1023 = settings: Serratia marcescens, 1023, strain E: Serratia marcescens 1023; read-out: minimum inhibition concentration
Summary of the method: as §1

[6] = test system: Proteus mirabillis B-30-2 IFO-3849; settings: strain G: Proteus mirabillis B-30-2 IFO-3849; read-out: minimum inhibition concentration
Summary of the method: as §1

Klebsiella pneumoniae = settings: Klebsiella pneumoniae, strain C: Klebsiella pneumoniae; read-out: minimum inhibition concentration
Summary of the method: as §1

[7] = test system: Salmonella typhimurium 3173; settings: Salmonella enterica, TYPHIMURIUM, strain D: Salmonella typhimurium 3173; read-out: minimum inhibition concentration
Summary of the method: as §1

[8] = test system: Serratia marcescens IFO-3736; settings: Serratia marcescens, IFO3736, strain F: Serratia marcescens IFO-3736; read-out: minimum inhibition concentration
Summary of the method: as §1

[9] = test system: Citrobactor freundii NIH-10018 -68; settings: strain O: Citrobactor freundii NIH-10018 -68; read-out: minimum inhibition concentration
Summary of the method: as §1

[10] = strain A: Staphylococcus aureus 6538-P, read-out: minimum inhibition concentration
[11] = NIH118, strain P: Proteus inconstans NIH-118, read-out: minimum inhibition concentration
[12] = NCTC10490, strain M: Pseudomonas aeruginosa NCTC-10490, read-out: minimum inhibition concentration
[13] = OX19, strain H: Proteus vulgaris OX-19, read-out: minimum inhibition concentration
[14] = NIH96, strain I: Proteus rettgeri NIH-96, read-out: minimum inhibition concentration

SMILES	MIC [1, 10] [µg/mL]	MIC [2, 11] [µg/mL]	MIC [3, 12] [µg/mL]	MIC [4] [µg/mL]	MIC (Escherichia coli NIHJ) [µg/mL]	MIC (Proteus vulgaris OX-19; [13]) [µg/mL]	MIC (Proteus rettgeri NIH-96; [14]) [µg/mL]	MIC [5] [µg/mL]	MIC (Proteus morgani Kono) [µg/mL]	MIC (Escherichia coli NIHJC-2) [µg/mL]	MIC (Serratia marcescens 1023) [µg/mL]	MIC [6] [µg/mL]	MIC (Klebsiella pneumoniae) [µg/mL]	MIC [7] [µg/mL]	MIC [8] [µg/mL]	MIC [9] [µg/mL]	other results
CC(=O)OCC1=C(C(=O)O)N2C(=O)C(NC(=O)C(=C(Cl)Cl)c3ccsc3)[C@H]2SC1 (stereo partly shown) [Compound 40, 7-[2-dichloromethylene-2-(3-thienyl)acetamido]-3-acetoxymethyl-3-cephem-4-carboxylic acid]	0.39 (≈ 0.817 µM)	25 (≈ 52.4 µM)	25 (≈ 52.4 µM)	100 (≈ 209 µM)	1.56 (≈ 3.27 µM)	25 (≈ 52.4 µM)	0.39 (≈ 0.817 µM)	–	–	–	–	–	–	–	–	–	–
CC(=O)OCC1=C(C(=O)O)N2C(=O)C(NC(=O)C(=C(Cl)Cl)c3cccs3)[C@H]2SC1 (stereo partly shown) [Compound 41, 7-[2-dichloromethylene-2-(2-thienyl)acetamido]-3-acetoxymethyl-3-cephem-4-carboxylic acid]	0.2 (≈ 0.419 µM)	1.56 (≈ 3.27 µM)	25 (≈ 52.4 µM)	50 (≈ 105 µM)	0.39 (≈ 0.817 µM)	0.39 (≈ 0.817 µM)	50 (≈ 105 µM)	–	–	–	–	–	–	–	–	–	–
Cn1nnnc1SCC1=C(C(=O)O)N2C(=O)C(NC(=O)C(=C(Cl)Cl)c3cccs3)C2SC1 (stereo not drawn) [Compound 39, 7-[2-dichloromethylene-2-(2-thienyl)acetamido]-3-(l-methyl-lH-tetrazol-5-yl)thiomethyl-3-cephem-4-carboxylic acid]	0.2 (≈ 0.375 µM)	3.12 (≈ 5.86 µM)	6.25 (≈ 11.7 µM)	12.5 (≈ 23.4 µM)	0.39 (≈ 0.731 µM)	50 (≈ 93.7 µM)	0.05 (≈ 0.0937 µM)	–	–	–	–	–	–	–	–	–	–
CC(=O)OCC1=C(C(=O)O)N2C(=O)C(NC(=O)Cc3cccs3)C2SC1 (stereo not shown) [Cephalo-thin Na salt, reference compound]	–	–	–	> 100	25	–	–	–	–	–	–	–	–	–	–	–	MIC ([1]; Staphylococcus aureus, 6538P, read-out: minimum inhibition concentration, strain A: Staphylococcus aureus 6538-P): 0.1 µg/mL; MIC ([2]; NIH118, read-out: minimum inhibition concentration): > 100 µg/mL; MIC ([3]; NCTC10490, read-out: minimum inhibition concentration): > 100 µg/mL; MIC (Proteus vulgaris OX-19; OX19, read-out: minimum inhibition concentration, strain H: Proteus vulgaris OX-19): > 100 µg/mL; MIC (Proteus rettgeri NIH-96; NIH96, read-out: minimum inhibition concentration, strain I: Proteus rettgeri NIH-96): > 100 µg/mL
CC(=O)OCC1=C(C(=O)O)N2C(=O)C(NC(=O)C(=C(Cl)Cl)c3ccc(Cl)cc3)[C@H]2SC1 (stereo partly shown) [Compound 29, 7-[2-dichloromethylene-2-(4-chlorophenyl)acetamido]-3-acetoxymethyl-3-cephem-4-carboxylic acid]	> 100	–	> 100	> 100	100 (≈ 198 µM)	> 100	3.12 (≈ 6.18 µM)	1.56 (≈ 3.08 µM)	> 100	> 100	12.5 (≈ 24.7 µM)	> 100	> 100	> 100	> 100	> 100	–
COc1ccc(C(C(=O)NC2C(=O)N3C(C(=O)O)=C(COC(C)=O)CS[C@H]23)=C(Cl)Cl)cc1 (stereo partly shown) [Compound 27, 7-[2-dichloromethylene-2-(4-methoxyphenyl)acetamido]-3-acetoxymethyl-3-cephem-4-carboxylic acid]	> 100	–	100 (≈ 199 µM)	> 100	100 (≈ 199 µM)	> 100	3.12 (≈ 6.23 µM)	3.12 (≈ 6.23 µM)	> 100	> 100	6.25 (≈ 12.5 µM)	> 100	> 100	> 100	> 100	> 100	–
